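A five-concentration, 48-hour dose response in 96-well plates underlies each endpoint, interpolated linearly between surrounding concentrations. GI50 marks 50% less growth.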 Calls of active or inactive are those of the source. Cut-off read from the data, not from the text of the source: active = GI50 up to about 1.1 µM and inactive = higher.
Experiments:
Assay in all cases: NCI tumour cell line growth inhibition, 48 h
[1] = tested on: 786-0
[2] = tested on: A498
[3] = tested on: A549
[4] = tested on: ACHN
[5] = tested on: CAKI-1
[6] = tested on: CCRF-CEM
[7] = tested on: COLO 205
[8] = tested on: DLD-1
[9] = tested on: DMS-114
[10] = tested on: DMS-273
[11] = tested on: DU-145
[12] = tested on: EKVX
[13] = tested on: HCC 2998
[14] = tested on: HCT-116
[15] = tested on: HCT-15
[16] = tested on: HL-60
[17] = tested on: HOP-62
[18] = tested on: HOP-92
[19] = tested on: HT-29
[20] = tested on: Hs-578T
[21] = tested on: IGROV-1
[22] = tested on: K562
[23] = tested on: KM-20L2
[24] = tested on: KM12
[25] = tested on: LOX IMVI
[26] = tested on: LXFL 529
[27] = tested on: M14
[28] = tested on: M19-MEL
[29] = tested on: MCF7
[30] = tested on: MDA-MB-231
[31] = tested on: MDA-MB-435
[32] = tested on: MDA-N
[33] = tested on: MOLT-4
[34] = tested on: Malme-3M
[35] = tested on: NCI-H226
[36] = tested on: NCI-H23
[37] = tested on: NCI-H460
[38] = tested on: NCI-H522
[39] = tested on: NCI/ADR-RES
[40] = tested on: OVCAR-3
[41] = tested on: OVCAR-4
[42] = tested on: OVCAR-5
[43] = tested on: OVCAR-8
[44] = tested on: PC-3
[45] = tested on: RPMI-8226
[46] = tested on: RXF 393
[47] = tested on: SF-268
[48] = tested on: SF-295
[49] = tested on: SF-539
[50] = tested on: SK-MEL-28
[51] = tested on: SK-MEL-2
[52] = tested on: SK-MEL-5
[53] = tested on: SK-OV-3
[54] = tested on: SN12C
[55] = tested on: SNB-19
[56] = tested on: SNB-75
[57] = tested on: SR
[58] = tested on: SW-620
[59] = tested on: T47D
[60] = tested on: TK-10
[61] = tested on: U-251
[62] = tested on: UACC-257
[63] = tested on: UACC-62
[64] = tested on: UO-31
[65] = tested on: SNB-78

In the case of CNC(=O)N(C)/N=N/CCCl, the GI50 [1] is reported as > 100 µM (inactive), the GI50 [2] is reported as > 100 µM (inactive) and the GI50 [3] is reported as > 100 µM (inactive). For the same compound, the GI50 [4] was > 100 µM (inactive), the GI50 [5] was > 100 µM (inactive) and the GI50 [6] was > 100 µM (inactive). The GI50 [7] was > 100 µM (inactive), the GI50 [8] was > 100 µM (inactive) and the GI50 [9] was > 100 µM (inactive). For the same compound, the GI50 [10] was > 100 µM (inactive), the GI50 [11] was > 100 µM (inactive) and the GI50 [12] was > 100 µM (inactive). For the same compound, the GI50 [13] was > 100 µM (inactive), the GI50 [14] was > 100 µM (inactive) and the GI50 [15] was > 100 µM. For the same compound, the GI50 [16] was > 100 µM (inactive), the GI50 [17] was > 100 µM (inactive) and the GI50 [18] was > 100 µM (inactive). The GI50 [19] was > 100 µM (inactive), the GI50 [20] was > 100 µM (inactive) and the GI50 [21] was > 100 µM (inactive). The GI50 [22] was > 100 µM (inactive), the GI50 [23] was > 100 µM (inactive) and the GI50 [24] was > 100 µM (inactive). The GI50 [25] was > 100 µM (inactive), the GI50 [26] was > 100 µM (inactive) and the GI50 [27] was > 100 µM (inactive). The GI50 [28] was > 100 µM (inactive), the GI50 [29] was > 100 µM (inactive) and the GI50 [30] was > 100 µM (inactive). The GI50 [31] was > 100 µM (inactive), the GI50 [32] was > 100 µM (inactive) and the GI50 [33] was > 100 µM (inactive). For the same compound, the GI50 [34] was > 100 µM (inactive), the GI50 [35] was > 100 µM (inactive) and the GI50 [36] was > 100 µM (inactive). For the same compound, the GI50 [37] was > 100 µM (inactive), the GI50 [38] was > 100 µM (inactive) and the GI50 [39] was > 100 µM (inactive). The GI50 [40] was > 100 µM (inactive), the GI50 [41] was > 100 µM (inactive) and the GI50 [42] was > 100 µM (inactive). The GI50 [43] was > 100 µM (inactive), the GI50 [44] was > 100 µM (inactive) and the GI50 [45] was > 100 µM (inactive). For the same compound, the GI50 [46] was > 100 µM (inactive), the GI50 [47] was > 100 µM (inactive) and the GI50 [48] was > 100 µM (inactive). The GI50 [49] was > 100 µM (inactive), the GI50 [50] was > 100 µM (inactive) and the GI50 [51] was > 100 µM (inactive). The GI50 [52] was > 100 µM (inactive), the GI50 [53] was > 100 µM (inactive) and the GI50 [54] was > 100 µM (inactive). The GI50 [55] was > 100 µM (inactive), the GI50 [56] was > 100 µM (inactive) and the GI50 [57] was > 100 µM (inactive). The GI50 [58] was > 100 µM (inactive), the GI50 [59] was > 100 µM (inactive) and the GI50 [60] was > 100 µM (inactive). The GI50 [61] was > 100 µM (inactive), the GI50 [62] was > 100 µM (inactive) and the GI50 [63] was > 100 µM (inactive). The GI50 [64] was > 100 µM (inactive).
With O=C1c2ccccc2C(=O)c2c(O)ccc(O)c21 [QUINIZARIN] the GI50 [1] was > 100 µM (inactive), the GI50 [2] was > 100 µM (inactive) and the GI50 [3] was 81.3 µM (inactive). For the same compound, the GI50 [4] was > 100 µM (inactive), the GI50 [5] was > 100 µM (inactive) and the GI50 [6] was > 100 µM (inactive). The GI50 [7] was > 100 µM (inactive), the GI50 [8] was 61.9 µM (inactive) and the GI50 [9] was > 100 µM (inactive). The GI50 [10] was > 100 µM (inactive), the GI50 [12] was 58.7 µM (inactive) and the GI50 [13] was 81.1 µM (inactive). The GI50 [14] was > 100 µM (inactive), the GI50 [15] was > 100 µM and the GI50 [16] was > 100 µM (inactive). For the same compound, the GI50 [17] was > 100 µM (inactive), the GI50 [18] was > 100 µM (inactive) and the GI50 [19] was 45.3 µM (inactive). The GI50 [21] was > 100 µM (inactive), the GI50 [22] was > 100 µM (inactive) and the GI50 [24] was 60.5 µM (inactive). The GI50 [25] was > 100 µM (inactive), the GI50 [26] was > 100 µM (inactive) and the GI50 [27] was > 100 µM (inactive). The GI50 [28] was 21.8 µM (inactive), the GI50 [33] was 52 µM (inactive) and the GI50 [34] was > 100 µM (inactive). The GI50 [36] was > 100 µM (inactive), the GI50 [37] was 40.8 µM (inactive) and the GI50 [38] was > 100 µM (inactive). The GI50 [40] was 29.2 µM (inactive), the GI50 [41] was > 100 µM (inactive) and the GI50 [42] was > 100 µM (inactive). For the same compound, the GI50 [43] was > 100 µM (inactive), the GI50 [45] was 91 µM (inactive) and the GI50 [46] was > 100 µM (inactive). For the same compound, the GI50 [47] was > 100 µM (inactive), the GI50 [48] was > 100 µM (inactive) and the GI50 [49] was > 100 µM (inactive). The GI50 [50] was > 100 µM (inactive), the GI50 [51] was 79.8 µM (inactive) and the GI50 [52] was 63.1 µM (inactive). The GI50 [53] was > 100 µM (inactive), the GI50 [54] was > 100 µM (inactive) and the GI50 [55] was > 100 µM (inactive). The GI50 [56] was > 100 µM (inactive), the GI50 [65] was > 100 µM (inactive) and the GI50 [58] was 93.8 µM (inactive). The GI50 [60] was > 100 µM (inactive), the GI50 [61] was > 100 µM (inactive) and the GI50 [62] was > 100 µM (inactive). For the same compound, the GI50 [63] was > 100 µM (inactive) and the GI50 [64] was 59 µM (inactive).
